Here are results for eleven molecules from ChEMBL document CHEMBL1201862, “PubChem BioAssay data set” (2004).

Common to all, as to experiment: DTP human tumour cell line panel, 48 h
The subject of assay [1] is HL-60.
Assay [2] concerns HT-29.
The subject of assay [3] is DU-145.
The subject of assay [4] is OVCAR-8.
In assay [5] the test system is SW-620.
For assay [6], the system named is TK-10.
Assay [7] relates to SR.
Assay [8] concerns OVCAR-4.
Assay [9] has as its system U-251.
The test system of assay [10] is SK-OV-3.
The test system of assay [11] is SNB-19.
For assay [12], the system named is SNB-75.
For assay [13], the system named is KM12.
Assay [14] relates to OVCAR-5.
In assay [15] the test system is NCI-H522.
In assay [16] the test system is COLO 205.
The subject of assay [17] is SF-539.
The test system of assay [18] is 786-0.
In assay [19] the test system is BT-549.
For assay [20], the system named is A498.

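Each compound was tested at five concentrations against cells in 96-well plates for 48 hours. GI50 = concentration required for 50% inhibition of growth.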 Active and inactive are the calls of the source. No stated cut-off is given here; in the data, active = GI50 up to about 1.1 µM and inactive = higher.

`N=c1oc2ccccc2cc1-c1nc2ccccc2[nH]1`: the GI50 in assay [1] is 7.05 µM (inactive); in assay [2] it was 36 µM (inactive); in assay [3] it was 18.4 µM (inactive); in [4] it was 71.6 µM (inactive); in assay [5] it was 36.6 µM (inactive); in assay [6] it was 17.7 µM (inactive). Besides, the GI50 was 19.2 µM (inactive) in [7]; > 100 µM (inactive) in assay [8]; 61.7 µM (inactive) in [9]; 13.6 µM (inactive) in assay [10]; 98.9 µM (inactive) in assay [11]; 41.1 µM (inactive) in [12]. Also, the GI50 is 30.8 µM (inactive) in [13]; > 100 µM (inactive) in assay [14]; 1.89 µM (inactive) in assay [15]; 51.2 µM (inactive) in assay [16]; 44.3 µM (inactive) in [17]; 15.4 µM (inactive) in assay [18]. Moreover, the GI50 in assay [19] was 27.5 µM (inactive).
As to `Cc1ncc([N+](=O)[O-])n1CCNC(=O)CCCCn1ccnc1[N+](=O)[O-]`, the GI50 in assay [1] is > 100 µM (inactive); in assay [2], > 100 µM (inactive); in [3], > 10 µM (inactive); in assay [4], > 100 µM (inactive); in assay [5], > 100 µM (inactive); in [20] it was > 100 µM (inactive). The GI50 in [7] is > 100 µM (inactive); in assay [9] it was > 100 µM (inactive); in [10], > 100 µM (inactive); in [11], > 100 µM (inactive); in assay [12] it was 97.5 µM (inactive); in assay [13], > 100 µM (inactive). Moreover, the GI50 in assay [14] is > 100 µM (inactive); in assay [15], > 100 µM (inactive); in assay [16], 36.3 µM (inactive); in assay [17] it was > 100 µM (inactive); in assay [18] it was > 100 µM (inactive); in [19], > 100 µM (inactive).
On to `O=[N+]([O-])/C=C/c1cn(CCCCCCCCCCCCn2cc(/C=C/[N+](=O)[O-])c3ccccc32)c2ccccc12`, for which the GI50 in assay [1], in assay [2], in assay [3], in assay [4], in assay [5] and in [20] was > 100 µM (inactive) in each case. For the same molecule, the GI50 in assay [6], in assay [7], in assay [8], in assay [9], in assay [10] and in assay [13] was > 100 µM (inactive) in each case. The GI50 in [14], in assay [15], in assay [16], in assay [17], in [18] and in assay [19] was > 100 µM (inactive) in each case.
`CC(=O)OC1=NN=C2COC(c3ccccc3OC(C)=O)=NN2C1`: the GI50 in [1] is > 50 µM (inactive); in assay [2], 39 µM (inactive); in assay [3], > 50 µM (inactive); in assay [5] it was > 50 µM (inactive); in assay [6] it was > 50 µM (inactive); in assay [7], > 50 µM (inactive). The GI50 in assay [8] is > 50 µM (inactive); in assay [9], > 50 µM (inactive); in assay [10], > 50 µM (inactive); in [11], > 50 µM (inactive); in [12], 15.8 µM (inactive); in assay [13] it was 31.5 µM (inactive). Moreover, the GI50 is > 50 µM (inactive) in [14]; > 50 µM (inactive) in [15]; 40.1 µM (inactive) in assay [16]; > 50 µM (inactive) in [17]; 24.4 µM (inactive) in assay [18]; > 50 µM (inactive) in [19].
In the case of `Cc1c(F)c(N)c2c(=O)cc(-c3ccc(NC(=O)CN(C)C)c(F)c3)oc2c1F`, the GI50 in assay [1] was 18.4 µM (inactive); in assay [2], 33.6 µM (inactive); in assay [3], 82.8 µM (inactive); in [4], 38.5 µM (inactive); in assay [5], 18.3 µM (inactive); in [20], 10 µM (inactive). Further, the GI50 was 18.5 µM (inactive) in assay [6]; 17.6 µM (inactive) in assay [7]; 23.6 µM (inactive) in [8]; 24.8 µM (inactive) in assay [9]; > 100 µM (inactive) in assay [10]; 54.1 µM (inactive) in assay [11]. The GI50 in [13] is 32 µM (inactive); in [14] it was 57 µM (inactive); in assay [15], 55.1 µM (inactive); in assay [16] it was 36.6 µM (inactive); in assay [17] it was > 100 µM (inactive); in assay [18], 39.5 µM (inactive). For the same molecule, in assay [19], the GI50 is > 100 µM (inactive).
`S=C(c1c[nH]c2ccccc12)N1CCN(Cc2ccccc2)CC1`: the GI50 in [1] is 18.5 µM (inactive); in assay [2] it was 16.5 µM (inactive); in assay [3], 17.5 µM (inactive); in [4] it was 19.1 µM (inactive); in assay [5], 17.8 µM (inactive); in assay [20] it was 19.2 µM (inactive). Also, the GI50 in [6] is 26.4 µM (inactive); in assay [7] it was 20.2 µM (inactive); in assay [9], 19.5 µM (inactive); in [10], 20.7 µM (inactive); in [11], 14.9 µM (inactive); in assay [12], 15.5 µM (inactive). Also, the GI50 in [13] is 17.2 µM (inactive); in assay [14] it was 16.2 µM (inactive); in assay [16] it was 16.5 µM (inactive); in [17] it was 18.6 µM (inactive); in assay [18], 15.7 µM (inactive); in assay [19] it was 14.7 µM (inactive).
In the case of `COC(=O)c1cc2c3c(c(C(C)=O)c(OC)c2[nH]1)NCC3`, the GI50 in assay [1], in assay [2], in [3], in assay [4], in assay [5] and in assay [20] was > 50 µM (inactive) each time. Besides, the GI50 in assay [6], in [7], in [9], in assay [10], in [11] and in [12] was > 50 µM (inactive) throughout. The GI50 in assay [13], in assay [14], in assay [16], in assay [17], in assay [18] and in [19] was > 50 µM (inactive) in each case.
Consider `COc1c(C(C)(C)C)cc(CC2C(=O)C=CC2=O)cc1C(C)(C)C`, for which the GI50 in assay [1] is 4.34 µM (inactive); in assay [2], 15.5 µM (inactive); in [3] it was 6.53 µM (inactive); in [4], 9.68 µM (inactive); in [5], 6.92 µM (inactive); in [20] it was 18 µM (inactive). Moreover, the GI50 in [6] is 5.92 µM (inactive); in assay [7] it was 3.89 µM (inactive); in [8], 21.2 µM (inactive); in assay [9], 18.2 µM (inactive); in assay [10], 25.1 µM (inactive); in assay [11], 19.1 µM (inactive). Further, the GI50 in assay [13] was 17.4 µM (inactive); in [14] it was 18.3 µM (inactive); in assay [15], 2.25 µM (inactive); in [16] it was 6.75 µM (inactive); in assay [17], 11.1 µM (inactive); in assay [18], 2.86 µM (inactive). In assay [19], the GI50 was 23.8 µM (inactive).
For the molecule `C/C(=N/NC(=S)N1CCCCC1)c1cccc(/C(C)=N\NC(=S)N2CCCCC2)n1`, the GI50 in [1] is 1.84 µM (inactive); in assay [2] it was 2.51 µM (inactive); in assay [3], 2.23 µM (inactive); in [4] it was 1.67 µM (inactive); in [5], 3.15 µM (inactive); in assay [20] it was 1.69 µM (inactive). The GI50 in assay [6] was 1.8 µM (inactive); in assay [7] it was 2.07 µM (inactive); in [9], 2.04 µM (inactive); in assay [10], 1.91 µM (inactive); in assay [11] it was 2.47 µM (inactive); in assay [12], 2.62 µM (inactive). The GI50 in [13] is 2.33 µM (inactive); in assay [14], 0.423 µM (active); in assay [15], 1.77 µM (inactive); in assay [16], 2.43 µM (inactive); in [17] it was 1.92 µM (inactive); in [18] it was 2.01 µM (inactive). Besides, the GI50 in [19] was 1.92 µM (inactive).
Take `CC(C)(C)C(=O)CC1=Nc2ccccc2SC1(O)CC(=O)C(C)(C)C` (stereo unspecified): the GI50 in [1] was 30.9 µM (inactive); in [2], 17.1 µM (inactive); in [3] it was 25.1 µM (inactive); in assay [4] it was 21.9 µM (inactive); in [5], 25.5 µM (inactive); in [20], > 100 µM (inactive). In addition, the GI50 was 64 µM (inactive) in assay [6]; 11.8 µM (inactive) in assay [7]; 22.2 µM (inactive) in [9]; 13.5 µM (inactive) in [10]; 35.6 µM (inactive) in assay [11]; 20.1 µM (inactive) in assay [13]. Moreover, the GI50 in assay [14] was 19.8 µM (inactive); in assay [15] it was 13 µM (inactive); in assay [16], 16.3 µM (inactive); in [17] it was 22.9 µM (inactive); in assay [18] it was 23.4 µM (inactive); in [19], 15.7 µM (inactive).
With `COc1cccc(C=C2N=C(c3ccccc3)N(n3c(-c4ccccc4)nc4ccccc4c3=O)C2=O)c1`, the GI50 in assay [1] was 25.1 µM (inactive); in [2], 40.9 µM (inactive); in assay [3], 83.8 µM (inactive); in assay [4] it was 44.5 µM (inactive); in assay [5], 74.3 µM (inactive); in [20], 67.9 µM (inactive). The GI50 in assay [6] was > 100 µM (inactive); in assay [7], 33.5 µM (inactive); in assay [10], > 100 µM (inactive); in [11], 64.6 µM (inactive); in assay [12], 44.4 µM (inactive); in [13] it was 37.9 µM (inactive). Further, the GI50 is 18.3 µM (inactive) in assay [15]; 54 µM (inactive) in [16]; 43.2 µM (inactive) in [17]; 83.4 µM (inactive) in assay [18]; > 100 µM (inactive) in assay [19].
